Source: patent US20080214606A1, “Methods for the Identification and Use of Compounds Suitable for the Treatment of Drug Resistant Cancer Cells” (The Government of the United States of America as …, priority 2004, published 2008)

Molecular target: ABCB1 (Homo sapiens, UniProt P08183)
Test: Correlation of ABCB1 expression with drug sensitivity across the NCI-60
Experimental: Expression levels are measured by real-time quantitative RT-PCR using the LightCycler RNA Amplification SYBR Green kit and a LightCycler machine (Roche Biochemicals, Indianapolis, Ind.). Specific oligonucleotide probes are designed for each of the ABC transporters using DNAStar Primer Select (DNASTAR Inc.), and they may be synthesized at Lofstrand Laboratories (Gaithersburg, Md.). When possible, the amplicons are designed to encompass exon-intron boundaries to avoid amplification of genomic DNA. Since the Syber Green assay detects accumulation of double stranded DNA, primers are selected (from a battery consisting of about 200 primers) that amplified a single product of the correct size.
RT-PCR is carried out on 150 ng total RNA, in the presence of 250 nM specific primers. Following reverse transcription (20 min at 50° C.), the PCR reaction consists of 45 cycles of denaturation (15 sec at 95° C.), annealing (30 sec at 58° C.), and elongation (30 sec at 72° C.). No-template (water) reaction mixtures are prepared as negative controls.
During PCR amplification, fluorescence emission is measured and recorded in real time by the LightCycler. Crossing point values are calculated, using the LightCycler software package, by the Fit Points analysis method, with baseline fluorescence set at 1. The SyberGreen assay measures accumulation of double-stranded products, and the appearance of primer dimers limits quantitation at high cycle numbers. […] The raw results are expressed as number of cycles to reach the crossing point. If the desired product is not detected, the corresponding value is adjusted to crossing points indicating no expression. To assess the contribution of experimental artifacts, selected cell lines are assessed in replicate.
Both sets are available at http://discover.nci.nih.gov. The two are combined to form a joint dataset that includes 1429 compounds.
To determine quantitatively how well the 47 genes cluster the cell lines by their tissues of origin, a statistical method is employed wherein the kappa statistic is used to indicate how well the observed clusters correspond to the nine tissue-of-origin classifications. […] To control the overall false type 1 error rate, both a step-down procedure (Westfall and Young, 1993, Resampling-Based Multiple Testing: Examples and Methods for p-value Adjustment (New York: Wiley)) and a step-up procedure (Reiner et al., 2003, Bioinformatics 19:368-375) were employed to adjust for multiple testing of all 47 genes simultaneously. In the Benjamini-Hochberg procedure the p-values are computed in the standard way by permutation, assuming that all distributions are exchangeable: the number of values in the permuted data with correlations over a threshold, divided by the number of compounds and by the number of permutations. In this analysis, the False Discovery Rate (q-value) at which each compound would be declared was calculated using the step-up procedure for positively correlated test statistics (again true because all correlations being compared are computed against the same ABC gene): in this procedure the first q-value for the largest correlation is the Bonferroni-corrected p-value for that gene; then further q-values are calculated as qj=max(pj*1429/j, qj-1). This procedure limits the expected proportion of false positives in the list 1, . . . , j to at most qj.

Sequence of ABCB1 (P08183 whole entry): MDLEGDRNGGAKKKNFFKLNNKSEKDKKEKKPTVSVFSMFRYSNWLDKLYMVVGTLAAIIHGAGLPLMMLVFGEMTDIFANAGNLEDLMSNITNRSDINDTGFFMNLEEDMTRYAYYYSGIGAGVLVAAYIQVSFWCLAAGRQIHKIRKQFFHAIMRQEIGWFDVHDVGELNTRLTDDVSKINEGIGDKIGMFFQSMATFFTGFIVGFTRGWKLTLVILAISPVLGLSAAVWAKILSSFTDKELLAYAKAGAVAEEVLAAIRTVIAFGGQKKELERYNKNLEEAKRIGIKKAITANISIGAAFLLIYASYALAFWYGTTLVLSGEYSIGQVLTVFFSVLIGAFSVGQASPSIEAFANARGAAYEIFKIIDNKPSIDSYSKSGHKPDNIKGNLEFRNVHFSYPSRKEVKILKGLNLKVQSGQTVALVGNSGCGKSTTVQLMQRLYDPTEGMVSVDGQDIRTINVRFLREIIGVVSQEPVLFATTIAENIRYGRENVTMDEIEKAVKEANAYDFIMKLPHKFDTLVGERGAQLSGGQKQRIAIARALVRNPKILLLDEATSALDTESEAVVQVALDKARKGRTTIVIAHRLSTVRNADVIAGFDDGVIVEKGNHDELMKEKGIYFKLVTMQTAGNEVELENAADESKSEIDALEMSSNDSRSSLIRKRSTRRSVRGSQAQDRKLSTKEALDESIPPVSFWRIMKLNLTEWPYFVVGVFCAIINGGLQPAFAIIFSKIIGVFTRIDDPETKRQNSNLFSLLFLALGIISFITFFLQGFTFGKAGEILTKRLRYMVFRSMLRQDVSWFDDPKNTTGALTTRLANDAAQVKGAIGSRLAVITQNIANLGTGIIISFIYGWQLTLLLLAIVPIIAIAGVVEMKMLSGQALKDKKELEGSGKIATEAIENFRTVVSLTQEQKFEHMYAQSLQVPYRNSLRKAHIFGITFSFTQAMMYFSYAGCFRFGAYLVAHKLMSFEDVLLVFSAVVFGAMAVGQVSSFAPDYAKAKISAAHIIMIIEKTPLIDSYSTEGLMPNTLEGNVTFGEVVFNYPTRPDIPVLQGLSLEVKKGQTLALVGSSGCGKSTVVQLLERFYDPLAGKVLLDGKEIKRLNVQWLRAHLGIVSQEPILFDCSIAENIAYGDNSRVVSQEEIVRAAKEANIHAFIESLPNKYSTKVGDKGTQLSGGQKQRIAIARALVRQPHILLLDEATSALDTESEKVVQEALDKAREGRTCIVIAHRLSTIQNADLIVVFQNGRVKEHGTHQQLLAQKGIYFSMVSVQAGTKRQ

| Structure (SMILES) | Relationship between drug sensitivity and ABCB1 expression (in words) | Pearson's Correlation Coeff |
| --- | --- | --- |
| O=c1[nH]cc(F)c(=O)[nH]1 [5-fluorouracil, reference compound] | non-correlated or positively correlated |  |
| O=C1C=CC(=O)c2c(O)ccc(O)c21 [NSC26647] |  | 0.2476 |
| NC(=O)NO [NSC32065] |  | 0.3336 |
| c1cc2n(n1)CCN2 [NSC51143] |  | 0.4328 |
| CCc1ccccc1N1CCN(C(=O)c2cc(OC)c(OC)c(OC)c2)CC1 [NSC56030] |  | 0.2372 |
| NC(=S)NN=Cc1ncccc1O [NSC95678] |  | 0.2475 |
| C=C(C)C(=O)O[C@H]1CC2=C[C@@H](C[C@@]3(C)O[C@@H]3[C@H]3OC(=O)C(=C)[C@@H]31)OC2=O [NSC100046] |  | 0.2949 |
| C=C1C(=O)O[C@H]2[C@H]1[C@@H](OC(=O)C=C(C)C)CC1=C[C@@H](C[C@@]3(C)O[C@@H]23)OC1=O [NSC102817] |  | 0.2813 |
| Cc1c(CNc2ccc(Cl)c(C(=O)NC(CC(=O)O)C(=O)O)c2)ccc2nc(N)nc(N)c12 (stereo not shown) [NSC132483] |  | 0.3151 |
| Nc1nc(N)c2cc(CNc3ccc(C(=O)NC(CC(=O)O)C(=O)O)c(Cl)c3)ccc2n1 (stereo not shown) [NSC134033] |  | 0.2800 |
| CCCCc1[nH]ccc2c(C)c3nc4ccccc4c3cc12 [NSC142055] |  | 0.3935 |
| Cc1c2cnccc2c(C)c2c1c1ccccc1n2CCOC(=O)c1ccccc1 [NSC163443] |  | 0.2891 |
| CN(Cc1cnc2nc(N)nc(N)c2n1)c1ccc(C(=O)N[C@@H](CCC(=O)O)C(=O)O)c2ccccc12 [NSC174121] |  | 0.2662 |
| Cc1c2ccncc2c(C)c2c1[nH]c1ccc(Cl)cc12 [NSC176326] |  | 0.3552 |
| CCc1c(CNc2ccc(C(=O)NC(CC(=O)O)C(=O)O)cc2)ccc2nc(N)nc(N)c12 (stereo not shown) [NSC184692] |  | 0.2971 |
| CC[C@@]1(O)C[C@H](O[C@H]2C[C@H](N(C)C)[C@H](O)[C@H](C)O2)c2c(cc3c(c2O)C(=O)c2c(O)ccc(O)c2C3=O)[C@H]1C(=O)OC [NSC267229] |  | 0.3505 |
| COc1cccc2c1C(=O)c1c(O)c3c(c(O)c1C2=O)C[C@@](O)(C(C)=O)C[C@@H]3OC1CC(N(Cc2ccccc2)Cc2ccccc2)C(O)C(C)O1.Cl (stereo partly shown) [NSC268242] |  | 0.2268 |
| O=C([O-])c1ccc(C(=O)[O-])c(C(=O)[O-])c1.[H+].[NH-]C1CCCCC1[NH-].[Pt+4] [NSC271674] |  | 0.2678 |
| Cc1cc(N(CCOS(C)(=O)=O)CCOS(C)(=O)=O)ccc1C=Nc1ccc(-c2nc(Cc3ccccc3)sc2C)cc1 [NSC281817] |  | 0.2646 |
| CCCOc1ccc(-c2nc(-c3ccc(N=Cc4ccc(N(CCOS(C)(=O)=O)CCOS(C)(=O)=O)cc4C)cc3)cs2)cc1 [NSC281818] |  | 0.2476 |
| Nc1ncnc2c1nc(Cl)n2[C@@H]1O[C@@H]2COP(=O)(O)O[C@H]2[C@H]1O [NSC284751] |  | 0.2759 |
| C=C1C(=O)O[C@@H]2C[C@H]1CC[C@]1(C)O[C@H]1CC/C(C)=C/CC[C@]2(C)O [NSC285706] |  | 0.3654 |
| CC(C)(C)N1CC1CNC(=O)C(=O)NCC1CN1C(C)(C)C (stereo not shown) [NSC298276] |  | 0.3398 |
| CN(C)CCN1C(=O)c2cccc3cc([N+](=O)[O-])cc(c23)C1=O [NSC300288] |  | 0.2734 |
| CCc1nc(N)nc(N)c1-c1ccc(Cl)c([N+](=O)[O-])c1 [NSC302325] |  | 0.2979 |
| CCc1nc(N)nc(N)c1-c1ccc(Cl)c(N=[N+]=[N-])c1 [NSC319947] |  | 0.3098 |
| CCc1nc(N)nc(N)c1-c1ccc(Cl)c(N=NN(C)C)c1 [NSC330465] |  | 0.2872 |
| Cc1c(-c2ccc(-c3ccccc3F)cc2)nc2ccc(F)cc2c1C(=O)O [NSC368390] |  | 0.2331 |

| Structure (SMILES) | Relationship between drug sensitivity and ABCB1 expression (in words) | Pearson's Correlation Coeff |
| --- | --- | --- |
| Nc1ccn([C@@H]2C=C(CO)[C@@H](O)[C@H]2O)c(=O)n1 [NSC375575] |  | 0.2400 |
| CCc1nc(N)nc(N)c1-c1ccc(NC)c([N+](=O)[O-])c1 [NSC382034] |  | 0.3302 |
| CCc1nc(N)nc(N)c1-c1ccc(N(C)Cc2ccccc2)c([N+](=O)[O-])c1 [NSC382035] |  | 0.3180 |
| CCc1nc(N)nc(N)c1-c1ccc(NCCc2ccccc2)c([N+](=O)[O-])c1 [NSC382049] |  | 0.3279 |
| CCc1nc(N)nc(N)c1-c1ccc2c(c1)nnn2CCc1ccccc1 [NSC382053] |  | 0.3841 |
| CCc1nc(N)nc(N)c1-c1ccc2nn(-c3ccccc3)[n+]([O-])c2c1 [NSC382054] |  | 0.3151 |
| COc1ccc(C2COc3cc(O)c(O)cc3C2)cc1 (stereo not shown) [NSC600285] |  | 0.2935 |
| Cc1ccc(C2COc3cc(O)c(O)cc3C2)cc1 (stereo not shown) [NSC600286] |  | 0.2177 |
| CCc1nc(N)nc(N)c1-c1ccc([N+](=O)[O-])c(Cl)c1 [NSC602313] |  | 0.3012 |
| O=S1(=O)CCC2=CC(C(F)(F)F)=CC(C(F)(F)F)=CN21 [NSC605440] |  | 0.2658 |
| CS(C)=O.[Cl][Pt][Cl].c1ccc2ncccc2c1 [NSC632790] |  | 0.2677 |
| Nc1nc(N)c2nc(CNc3ccc(C(=O)N[C@@H](CCCNC(=O)c4ccccc4C(=O)O)C(=O)O)cc3)cnc2n1 [NSC633713] |  | 0.2908 |
| COc1ccc(C(=O)c2cc(OC)c(OC)c(OC)c2)cc1 [NSC638498] |  | 0.2464 |
| COc1cc([C@@H]2c3[nH]c4ccccc4c3C[C@H]3COC(=O)N32)cc(OC)c1O [NSC640737] |  | 0.2176 |
| COc1ccc(-c2oc3cc(O)c(OC)c(O)c3c(=O)c2O)cc1 [NSC641548] |  | 0.2632 |
| CN(C)CCNc1ccc2nnn3c4ccc(Cl)cc4c(=O)c1c23 [NSC645818] |  | 0.3377 |
| CC1=C(N2CC2)C(=O)C(C)=C(N2CC2)C1=O [NSC646714] |  | 0.3262 |
| COc1cc(/C=C2\CCC/C(=C\c3ccc(O)c(OC)c3)C2=O)ccc1O [NSC652893] |  | 0.2821 |
| O=c1cc(-c2ccccc2F)[nH]c2cc3c(cc12)OCO3 [NSC656158] |  | 0.2218 |
| O=c1cc(-c2cccc(OCc3ccccc3)c2)[nH]c2cc3c(cc12)OCO3 [NSC657279] |  | 0.2253 |
| CCCOc1cc2c(cc1O)CC[C@@H]1[C@@H]2CC[C@]2(C)[C@@H](O)CC[C@@H]12 [NSC671041] |  | 0.2610 |
| COc1ccc2cc(CNCCCCCCCCNCc3ccc4cc(OC)ccc4c3)ccc2c1 [NSC676427] |  | 0.1843 |
| CCOc1cc2c(cc1O)C(=O)C[C@@H]1[C@@H]2CC[C@]2(C)[C@@H](O)CC[C@@H]12 [NSC679431] |  | 0.2672 |
| C[C@]12CC[C@@H]3c4cc(OCC(F)(F)F)c(O)cc4/C(=N/O)C[C@H]3[C@@H]1CC[C@@H]2O [NSC681683] |  | 0.2079 |
| N#Cc1c(N2CCN(c3ccc([N+](=O)[O-])cc3)CC2)[n+](=O)c2ccc(Cl)cc2n1[O-] [NSC688493] |  | 0.2012 |
| COc1ccc(O)c(/C=N/NC(=S)N2CCCCC2)c1 [NSC689529] |  | 0.3465 |
| O=[N+]([O-])c1ccc(O)c(/C=N/NC(=S)N2CCCCC2)c1 [NSC689530] |  | 0.3398 |
